Measurements published in patent US7638556B2, “Freeze-dried product of N-[o-(p-pivaloyloxy benzenesulfonylamino)benzoyl]glycine monosodium salt tetra-hydrate and a process for the manufacture thereof” (Ono Pharmaceutical Co., Ltd., priority 2000, dated 2009).
Where two headings read alike, the source gives them in different places.

Legend:
[1] = solubility in mixed solvent of ethanol and water by titration until completely dissolved (Example 1); format: physicochemical; conditions: thermodynamic from solid
Procedure: By the following method, the concentration of compound (I) was measured when compound (I) was completely dissolved in various ratios of mixed solvent comprising water and ethanol.
Above mixed solvent was titrated with various added volume for compound (I) and the mixture was vigorously stirred and was left alone for several minutes.
The above operation was done repeatedly until confirming that the solute was completely dissolved by visual recognition.
Solubility A was given by dividing the amount of solute (mg) with the volume of added solvent (ml) when the solute was completely dissolved; and solubility B was given by dividing the amount of solute with the volume of added solvent before the solute was completely dissolved (mg).
It is judged that the solubility of compound (I) to mixed solvent of ethanol and water is between solubility A and solubility B.

[2] = solubility of compound (I) in water or ethanol; format: physicochemical
Procedure: However, compound (I) is hardly soluble in water or ethanol; the solubility is 0.4 mg/ml in water, and 6.0 mg/ml in ethanol. Therefore, by normal solvents it is difficult to prepare a clear solution for the process of a high-dosage freeze-dried product.
Compound (I) has, as shown above, a very low solubility; 0.4 mg/ml in water, 6.0 mg/ml in ethanol. In order to obtain a freeze-dried product to prepare a high-dosage product of this compound, it is necessary to improve the solubility.

[3] = prior freeze-dried product method using sodium carbonate and water; cited from earlier work
elastase = target: T1, elastase (Homo sapiens, UniProt P08246); conditions: cited from earlier work
T1 sequence (P08246 30-267): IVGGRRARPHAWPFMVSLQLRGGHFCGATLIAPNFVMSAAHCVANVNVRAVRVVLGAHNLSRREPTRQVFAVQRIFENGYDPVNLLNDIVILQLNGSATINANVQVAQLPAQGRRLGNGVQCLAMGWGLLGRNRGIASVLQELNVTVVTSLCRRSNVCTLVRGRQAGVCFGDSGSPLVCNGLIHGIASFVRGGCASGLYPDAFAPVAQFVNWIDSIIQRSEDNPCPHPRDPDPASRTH

Question: Which solubility ([1]; aqueous with cosolvent or surfactant or cyclodextrin, ratio of ethanol 10 vol %, read-out: solubility A) does the source give for `CC(C)(C)C(=O)Oc1ccc(S(=O)(=O)Nc2ccccc2C(=O)NCC(=O)[O-])cc1.[Na+]` [compound (I), N-[o-(p-pivaloyloxybenzenesulfonylamino)benzoyl]glycine monosodium salt tetra-hydrate] here?
Answer: 0.83 mg/mL

Question: And the solubility ([1]; aqueous with cosolvent or surfactant or cyclodextrin, ratio of ethanol 10 vol %, read-out: solubility B)?
Answer: 0.91 mg/mL

Question: And the solubility ([1]; aqueous with cosolvent or surfactant or cyclodextrin, ratio of ethanol 15 vol %, read-out: solubility A)?
Answer: 0.91 mg/mL

Question: What about the solubility ([1]; aqueous with cosolvent or surfactant or cyclodextrin, ratio of ethanol 15 vol %, read-out: solubility B) of the same compound?
Answer: 1 mg/mL

Question: What about the solubility ([1]; aqueous with cosolvent or surfactant or cyclodextrin, ratio of ethanol 20 vol %, read-out: solubility A) of the same compound?
Answer: 1.43 mg/mL

Question: And the solubility ([1]; aqueous with cosolvent or surfactant or cyclodextrin, ratio of ethanol 20 vol %, read-out: solubility B)?
Answer: 1.67 mg/mL

Question: And the solubility ([1]; aqueous with cosolvent or surfactant or cyclodextrin, ratio of ethanol 25 vol %, read-out: solubility A)?
Answer: 1.67 mg/mL

Question: And the solubility ([1]; aqueous with cosolvent or surfactant or cyclodextrin, ratio of ethanol 25 vol %, read-out: solubility B)?
Answer: 2 mg/mL

Question: And the solubility ([1]; aqueous with cosolvent or surfactant or cyclodextrin, ratio of ethanol 30 vol %, read-out: solubility A)?
Answer: 100 mg/mL

Question: And the solubility ([1]; aqueous with cosolvent or surfactant or cyclodextrin, ratio of ethanol 30 vol %, read-out: solubility B)?
Answer: 125 mg/mL

Question: And the solubility ([1]; aqueous with cosolvent or surfactant or cyclodextrin, ratio of ethanol 40 vol %, read-out: solubility A)?
Answer: 125 mg/mL

Question: And the solubility ([1]; aqueous with cosolvent or surfactant or cyclodextrin, ratio of ethanol 40 vol %, read-out: solubility B)?
Answer: 167 mg/mL

Question: And the solubility ([1]; aqueous with cosolvent or surfactant or cyclodextrin, ratio of ethanol 50 vol %, read-out: solubility A)?
Answer: 167 mg/mL

Question: What about the solubility ([1]; aqueous with cosolvent or surfactant or cyclodextrin, ratio of ethanol 50 vol %, read-out: solubility B) of the same compound?
Answer: 250 mg/mL

Question: And the solubility ([1]; aqueous with cosolvent or surfactant or cyclodextrin, ratio of ethanol 60 vol %, read-out: solubility A)?
Answer: 167 mg/mL

Question: What about the solubility ([1]; aqueous with cosolvent or surfactant or cyclodextrin, ratio of ethanol 60 vol %, read-out: solubility B) of the same compound?
Answer: 250 mg/mL

Question: And the solubility ([1]; aqueous with cosolvent or surfactant or cyclodextrin, ratio of ethanol 70 vol %, read-out: solubility A)?
Answer: 125 mg/mL

Question: And the solubility ([1]; aqueous with cosolvent or surfactant or cyclodextrin, ratio of ethanol 70 vol %, read-out: solubility B)?
Answer: 167 mg/mL

Question: And the solubility ([1]; aqueous with cosolvent or surfactant or cyclodextrin, ratio of ethanol 80 vol %, read-out: solubility A)?
Answer: 125 mg/mL

Question: And the solubility ([1]; aqueous with cosolvent or surfactant or cyclodextrin, ratio of ethanol 80 vol %, read-out: solubility B)?
Answer: 167 mg/mL

Question: And the solubility ([1]; aqueous with cosolvent or surfactant or cyclodextrin, ratio of ethanol 90 vol %, read-out: solubility A)?
Answer: 50 mg/mL

Question: And the solubility ([1]; organic solvent or mixture, mixed solvent ethanol/water=3.0/7.0~8.0/2.0 (v/v), read-out: solubility)?
Answer: ≥ 80 mg/mL

Question: And the solubility ([1]; organic solvent or mixture, ratio of ethanol 90 vol %, read-out: solubility B)?
Answer: 55.6 mg/mL

Question: What about the solubility ([1]; organic solvent or mixture, ratio of ethanol 100 vol %, read-out: solubility A) of the same compound?
Answer: 5 mg/mL

Question: And the solubility ([1]; organic solvent or mixture, ratio of ethanol 100 vol %, read-out: solubility B)?
Answer: 5.56 mg/mL

Question: And the solubility ([1]; water, ratio of ethanol 0 vol %, read-out: solubility A)?
Answer: 0.22 mg/mL

Question: And the solubility ([1]; water, ratio of ethanol 0 vol %, read-out: solubility B)?
Answer: 0.23 mg/mL

Question: What about the solubility ([2]; in water) of the same compound?
Answer: 0.4 mg/mL

Question: And the solubility ([2]; organic solvent or mixture, in ethanol)?
Answer: 6 mg/mL

Question: What about the solubility [3] of the same compound?
Answer: < 80 mg/mL

Question: What about the “inhibitory activity against elastase” value (elastase) of the same compound?
Answer: inhibitory activity against elastase
